Measurements reported in US20040096845A1, “Peritoneal dialysates” (priority 2000, published 2004).
Like-named read-outs stand apart in the source and are kept apart here.

Assays:
Collagen IV = assay: Suppression of methylglyoxal-induced cross linking of collagen IV, by fluorescent intensity; assay type: biochemical
[1] = Redox potential of cross linking suppressors; assay type: physicochemical
[2] = tested on: AGE formation in peritoneum tissue; details: rat
[3] = collagen IV + methylglyoxal in phosphate buffer solution, 37° C., 7 days, relative to Control 3 = 100
[4] = Table 3, Control 3 (no suppressor) +282

Row | SMILES | Increase in FI % (Collagen IV) [%] | Redox potential (mV) [1] | also measured
1 | O=S([O-])([O-])=S.[Na+].[Na+] [Sodium thiosulfate] | 67 | +40 mV | –
2 | O=C(C[n+]1ccsc1)c1ccccc1.[Br-] [N-Phenacyl thiazolium bromide] | – | – | AGE formation in peritoneum (in words) ([2]; solution (C), methylglyoxal + additive, 5 days): did not form AGE; AGE formed on peritoneum tissue through first 5 days infusion, after second 5 days infusion (in words) ([2]; solution (D), additive alone for second 5 days): disappeared
3 | O=S([O-])S(=O)(=O)[O-].[Na+].[Na+] [Sodium metabisulfite] | – | – | Increase in FI % (Collagen IV; [3]): 0%; Redox potential (mV) [1, 4]: +17 mV
4 | O=S([O-])S(=O)[O-].[Na+].[Na+] [Sodium hydrosulfite (Na2S2O4), Sodium hydrosulfite] | – | – | Increase in FI % (Collagen IV; [3]): 0%; Redox potential (mV) [1, 4]: −360 mV
5 | CNC(=S)NC [Dimethylthiourea] | 2 | −40 mV | –
6 | O=S([O-])O.[Na+] [Sodium bisulfite] | 0 | −127 mV | –
7 | S [Sodium hydrosulfide] | 10 | −620 mV | –
